Experimental data from patent publication EP3572468B1, “CYANINE DYES AND THEIR USAGE FOR IN VIVO STAINING OF MICROORGANISMS” (PHILIPPS-UNIVERSITÄT MARBURG, priority 2018, dated 2019).

Key:
dsDNACT [1] = assay: UV-Vis absorbance titration with dsDNACT; format: binding, calf; details: addition of dsDNACT (< 2.5 eq of DNA); 12.3 µM dye in 10 mM Tris pH 7.6 and 50 mM KCI
Method: UV-Vis titration measurements were performed on a Jasco V-650 UV-Vis spectrophotometer equipped with a Jasco PAC-743 temperature controlled cell holder and a Julabo F250 cooling system to maintain the temperature constant at 20°C during the measurements. UV-Vis titration measurements were performed in a 500 µL quarz cuvette with a pathlength of 1 cm at 20°C. The absorbance spectra were recorded from 400 nm to 800 nm.
UV-Vis titration measurements were performed at a concentration of 12.3 µM of the dye in 10 mM Tris pH 7.6 and 50 mM KCI. Increasing aliquots of a 1.54 mM and 15.4 mM stock solutions of dsDNACT were successively added and the absorbance spectra were recorded in a range from 400-800 nm after 1 min of each addition. Three independent measurements were carried out. The presented spectra are the resulting mean of the three independent measurements.

[2] = system: antibiotic-resistant Klebsiella pneumoniae (K. pneumoniae); format: cell-based; details: 2.5 µM dye
Method: Escherichia coli (E. coli) NEB5α (New England Biolabs) and antibiotic-resistant and -sensitive Klebsiella pneumoniae (K. pneumoniae) were cultured in Luria-Bertani (LB) solid medium (LB-Agar) overnight at 37°C. The source of the K. pneumoniae strands is of no relevance to the invention. The invention may be applied to all types of microorganisms (bacteria, viri, fungi etc.) or other cells, either contained within a sample or isolated from a sample. For staining, growth curve analysis and replating experiments bacteria were suspended in LB liquid medium at an OD600 nm of 1.0 and 800 µL were transferred into a culture tube containing 7.2 mL of LB liquid medium supplemented with DMSO or candidate dyes (2.5 µM) final concentration). Density of bacterial cultures was measured using an Ultrospec 10 Cell Density Meter with 600 nm LED source (Amersham Biosciences). […]
Bacteria and macrophages were washed with PBS prior to flow cytometry and analysed using a Guava easyCyte flow cytometer (Millipore). FCS3.0 files were analysed using Flowing Software (http://flowingsoftware.btk.fi/). Cells were first gated in the forward- / side-scatter plot to exclude debries, followed by quadrant gating in plots using the fluorescence channels as shown above. […] Propidium iodide signal was recorded in the yellow channel.

[3] = system: primary human macrophages; assay: Uptake of 6-TramTO-3-labeled bacteria by macrophages (co-culture, FACS); format: cell-based; details: multiplicity of infection of 20
Method: For primary human macrophage cultures buffy coats from blood donations were loaded onto Lymphoprep™ gradient medium (Fresenius Kabi) followed by centrifugation. The peripheral blood mononuclear cell band was isolated from the gradient and monocytes were enriched using CD14 MACS beads (Miltenyi) according to the manufacturer's instructions. To differentiate monocytes into macrophages cells were cultured in 6-well plates (800.000 cells/mL) in 2 mL X-Vivo 15 medium (Lonza) supplemented with 5 % fetal bovine serum (Biochrom) and 15 ng/mL recombinant human GM-CSF (Preprotech). On day 7 macrophages were considered terminally differentiated and treated with stained bacteria. To this end bacteria stained as described above were sampled at an OD600 nm = 2.0 and washed five times with phosphate buffered saline (PBS). After the last wash bacteria were brought to an OD600 nm of 2.0 and 16 µL, equivalent to 16.000.000 bacteria were added to each well to achieve a multiplicity of infection of 20. Culture plates were then centrifuged for 10 min at 250 G and 37°C to establish physical contact between macrophages and bacteria. Subsequently, culture plates were transferred back into a 37°C incubator with CO2 atmosphere for the remainder of the stimulation period.
Bacteria and macrophages were washed with PBS prior to flow cytometry and analysed using a Guava easyCyte flow cytometer (Millipore). FCS3.0 files were analysed using Flowing Software (http://flowingsoftware.btk.fi/). Cells were first gated in the forward- / side-scatter plot to exclude debries, followed by quadrant gating in plots using the fluorescence channels as shown above. For discrimination of live/dead cell discrimination cells in PBS were supplemented with 0.4 µL/mL propidium-iodide (5 mg/ml solution) followed by 5 min incubation on ice. Propidium iodide signal was recorded in the yellow channel.

dsDNACT [4] = assay: Thermal melting analysis of dsDNACT; format: binding, calf
Method: Thermal melting analysis was performed on a Jasco J-810 spectropolarimeter equipped with a Jasco CDF-426S peliter controller and a Thermo Haake WKL 26 water recirculator. It was measured at a concentration of 45 µM of dsDNACT with and without 1.8 µM of 6-TramTO-3 in 10 mM Tris pH 7.5. The measurement was performed at 260 nm, with a response of 2 s, a band width of 10 nm, from 40-95°C, a slope of 2°C/min. Three independent measurements were recorded and the intensity normalized.

## CC[n+]1ccc(/C=C/C=C2\Sc3ccccc3N2CCCCCCn2cc(CN)nn2)c2ccccc21.[I-] [6-TramTO-3, 4-((1E,3Z)-3-(3-(6-(4-(aminomethyl)-1H-1,2,3-triazol-1-yl)hexyl)benzo[d]thiazol-2(3H)-ylidene)prop-1-en-1-yl)-1-ethylquinolin-1-ium iodide]
dsDNACT [1]
  blue shift of the absorption maximum: 102 nm
[2]
  bacterial growth in presence of dye: grew normally
[2]; OD600 = 2.0
  fluorescent labeling of live bacteria (FACS): successfully fluorescently labeled
[3]; macrophages exposed to 6-TramTO-3-labeled E. coli
  red-shift of the macrophages (bacterial uptake): ~ 26%
[3]; macrophages exposed to 6-TramTO-3-labeled antibiotic sensitive Klebsiella strain
  macrophages that took up bacteria (red-shifted): ~ 0.2%
[3]; macrophages exposed to 6-TramTO-3-labeled antibiotic-resistant Klebsiella strain
  macrophages that took up bacteria (red-shifted): ~ 4%
dsDNACT [4]; 45 µM dsDNACT with 1.8 µM dye in 10 mM Tris pH 7.5, dsDNACT alone 68.12°C
  melting point of dsDNACT with addition of dye: 72.66 °C
dsDNACT [4]; dsDNACT stabilization upon dye binding, 45 µM dsDNACT, 1.8 µM dye, 10 mM Tris pH 7.5
  ΔTm: 5 °C
